Reference: patent publication US6531600B1, “Treatment and compounds” (Beecham Group p.l.c., priority 1989, dated 2003)

Molecular target: c-AMP phosphodiesterase (erythrocytes)
Assay: Inhibition of cyclic AMP phosphodiesterase (erythrocyte extract, radiochemical procedure)
Format: biochemical
Conditions: phosphodiesterase extracted from erythrocytes
Protocol: a) Inhibition of Cyclic AMP Phosphodiesterase
The phosphodiesterase was extracted by mixing the erythrocytes with 4 volumes of 7 mM phosphate buffer, pH7.4, followed by sonification (3×10 sec; 100 W) and then centrifuging for 30 min at 4200×g.
All supernatants were diluted in the extraction medium and assayed for phosphodiesterase activity within 6 hours of preparation, using the radiochemical procedure described in the above mentioned reference.

Compound | Ki
1,3-Di-cyclopropylmethyl-8-piperidinyl xanthine [Example 23] | 55.9 µM
1,3-Di-cyclopropylmethyl-8-pyrrolidinyl xanthine [Example 22] | 29.7 µM
CCCCn1c(=O)c2[nH]c([N+](=O)[O-])nc2n(CCCC)c1=O [Example 1, 1,3-Di-n-butyl-8-nitro xanthine] | 17 µM
O=c1c2[nH]c([N+](=O)[O-])nc2n(CC2CC2)c(=O)n1CC1CC1 [Example 2, 1,3-Di-cyclopropylmethyl-8-nitro xanthine] | 15.9 µM
Nc1nc2c([nH]1)c(=O)n(CC1CC1)c(=O)n2CC1CC1 [Example 9, 1,3-Di-cyclopropylmethyl-8-amino xanthine] | 1.6 µM
Nc1nc2c([nH]1)c(=O)n(C1CC1)c(=O)n2C1CC1 [Example 13, 1,3-Di-cyclopropyl-8-amino xanthine] | 14 µM
O=c1c2[nH]c(Cl)nc2n(CC2CC2)c(=O)n1CC1CC1 [Example 17, 1,3-Di-cyclopropylmethyl-8-chloro xanthine] | 15.1 µM
O=c1c2[nH]c(Cl)nc2n(C2CCCCC2)c(=O)n1C1CCCCC1 [Example 18, 1,3-Di-cyclohexyl-8-chloro xanthine] | 23 µM
CCCCn1c(=O)c2[nH]c(N3CCCCC3)nc2n(CCCC)c1=O [Example 19, 1,3-Di-n-butyl-8-piperidino xanthine] | < 100 µM
O=c1c2[nH]c(N3CCOCC3)nc2n(CC2CC2)c(=O)n1CC1CC1 [Example 20, 1,3-Di-cyclopropylmethyl-8-morpholino xanthine] | 11.5 µM
O=c1c2[nH]c(Br)nc2n(CC2CCCCC2)c(=O)n1CC1CCCCC1 [Example 25, 1,3-Di-cyclohexylmethyl-8-bromo xanthine] | 7.9 µM

Results, then the compound that gave them:

Ki | Compound
6.1 µM | O=c1c2[nH]c([N+](=O)[O-])nc2n(CC2CCC2)c(=O)n1CC1CCC1 [Example 3]
5.4 µM | O=c1c2[nH]c([N+](=O)[O-])nc2n(CC2CCCCC2)c(=O)n1CC1CCCCC1 [Example 5]
4.8 µM | O=c1c2[nH]c([N+](=O)[O-])nc2n(CC2CCCC2)c(=O)n1CC1CCCC1 [Example 4]
1.3 µM | CCCCn1c(=O)c2[nH]c(N)nc2n(CCCC)c1=O.Cl [Example 7, 1,3-Di-n-butyl-8-amino xanthine hydrochloride]
0.57 µM | Nc1nc2c([nH]1)c(=O)n(CC1CCCC1)c(=O)n2CC1CCCC1 [Example 11]
0.53 µM | Nc1nc2c([nH]1)c(=O)n(CC1CCC1)c(=O)n2CC1CCC1 [Example 10]

System: Sephadex induced eosinophilia
Assay: Sephadex induced blood eosinophilia in the rat
Format: in vivo
Conditions: 0.2 mg/kg orally 30 mins before each Sephadex i.v. injection, n = 12 or more
Protocol: b) Induction of blood eosinophilia and the effects of drugs.
Male Charles River Sprague Dawley rats weight between 250 to 300 g were used.
The method used was a modification of that described by Laycock et al (Int. Arch. Appl. Immunol, (1986). 81, 363).
Sephadex G200, particle size 40 to 120 micron, was suspended in isotonic saline at 0.5 mg/ml, and stored for 48 h at 4° C. 1 ml of the suspension was given intravenously to rats on days 0,2 and 5. A control group received saline. The test compound was given before the Sephadex on each occasion, with a contact time expected to give maximum activity at the time of the Sephadex administration. Blood was taken from the tail vein of the rats on day 7 for the determination of total and differential leucocyte counts.
A control group of at least 6 animals was included each time a compound was evaluated. The control group received Sephadex and the vehicle without test compound. The results in the drug treated animals were compared with the control group. Alternatively, if the mean for the control group for any experiment was not statistically different from the mean of the sum of all of the controls groups, then the treated animal results for that experiment were compared with the mean of the sum of all the control groups.
Total and differential leucocyte counts
20 μl samples of blood, taken from the tail vein of the rats, were added to 10 ml of Isoton II and, within 30 min, Zaponin (3 drops) was added, to lyse the erythrocytes. Five minutes later the total cell count was determined using a Coulter Counter Model DN. Differential leucocyte counts were carried out by fixing and staining a blood smear on a microscopic slide with May-Grunwald and Giemsa stains. A minimum of 400 cells were counted on each slide.
Probability values were calculated using the Student's t test.
The effect of the test compound upon Sephadex induced eosinophilia in the rat is set out in Table 3. The test compound was given orally 30 minutes before each injection of Sephadex.

Compound | % of Control Mean ± SEM (blood eosinophilia)
Nc1nc2c([nH]1)c(=O)n(CC1CC1)c(=O)n2CC1CC1 [Example 9, 1,3-Di-cyclopropylmethyl-8-amino xanthine] | 61 ± 8 % of Control

Same assay, conditions: 2.0 mg/kg orally 30 mins before each Sephadex i.v. injection, n = 12 or more

Compound | % of Control Mean ± SEM (blood eosinophilia)
Nc1nc2c([nH]1)c(=O)n(CC1CC1)c(=O)n2CC1CC1 [Example 9, 1,3-Di-cyclopropylmethyl-8-amino xanthine] | 48 ± 7 % of Control

Same assay, conditions: 5.0 mg/kg orally 30 mins before each Sephadex i.v. injection, n = 12 or more

Compound | % of Control Mean ± SEM (blood eosinophilia)
Nc1nc2c([nH]1)c(=O)n(CC1CCC1)c(=O)n2CC1CCC1 [Example 10] | 47 ± 4 % of Control

Same assay, conditions: 25.0 mg/kg orally 30 mins before each Sephadex i.v. injection, n = 12 or more

Compound | % of Control Mean ± SEM (blood eosinophilia)
CCCCn1c(=O)c2[nH]c([N+](=O)[O-])nc2n(CCCC)c1=O [Example 1, 1,3-Di-n-butyl-8-nitro xanthine] | 109 ± 6 % of Control
CCCCn1c(=O)c2[nH]c(N)nc2n(CCCC)c1=O.Cl [Example 7, 1,3-Di-n-butyl-8-amino xanthine hydrochloride] | 91 ± 6 % of Control

System: not given
Assay: not given
Conditions: not given

melting point | Compound
220 °C | O=c1c2[nH]c([N+](=O)[O-])nc2n(CC2CCC2)c(=O)n1CC1CCC1 [Example 3]
148 to 150 °C | O=c1c2[nH]c([N+](=O)[O-])nc2n(CC2CCCC2)c(=O)n1CC1CCCC1 [Example 4]
140 °C | O=c1c2[nH]c([N+](=O)[O-])nc2n(CC2CCCCC2)c(=O)n1CC1CCCCC1 [Example 5]
89 °C | CCCCn1c(=O)c2[nH]c(N)nc2n(CCCC)c1=O [Example 8, 1,3-Di-n-butyl-8-amino xanthine]
124 °C (dec.) | Nc1nc2c([nH]1)c(=O)n(CC1CCC1)c(=O)n2CC1CCC1 [Example 10]
300 °C | Nc1nc2c([nH]1)c(=O)n(CC1CCCC1)c(=O)n2CC1CCCC1 [Example 11]
